This is an account of results in US20130064855A1, “REPROGRAMMING IMMUNE ENVIRONMENT IN BREAST CANCER VIA DENDRITIC CELLS” (BAYLOR RESEARCH INSTITUTE, priority 2011, published 2013).

Entries after “also recorded” stand apart in the source; their conditions may differ.

Experiment [1] relates to myeloid dendritic cells (mDCs). The experiment is described as follows: mDCs pre-treated with curdlan and cultured with breast tumor derived products; phenotype staining and cytokine in supernatant. The format is cell-based, human. An excerpt: Isolation and culture of myeloid dendritic cells: DCs were purified from buffy coat of blood from healthy donors. Briefly, DCs were enriched from mononuclear cells by negative selection using a mixture of antibodies against lineage markers for CD3, CD14, CD16, CD19, CD56 and glycophorin A (Dynabeads® Human DC Enrichment Kit, Invitrogen). Cells from negative fraction were immuno-labeled with anti-human FITC-labeled lineage cocktail (CD3, CD14, CD16, CD19, CD20 and CD56, BD biosciences Cat. 340546); PE-labeled CD123 (mIgG1, clone 9F5, BD biosciences Cat. 340545), QR-labeled HLA-DR (mIgG2a, clone HK14, Sigma-Aldrich Cat. R8144) and APC-labeled CD11c (mIgG2b, clone S—HCL-3, BD biosciences Cat. 340544). DCs (lin^−, CD123^−, HLA-DR^+, CD11c^+) were sorted in a FACS Aria cytometer (BD Bioscience). DCs were seeded at 100×10^3 cells/well in 200 μl of medium (RPMI supplemented with glutamine 2 mM, penicillin 50 U/ml, streptomycin 50 μg/ml, MEM non-essential amino acids 0.1 mM, HEPES buffer 10 mM, sodium pyruvate 0.1 mM and 10% of human AB serum). DCs were cultured with medium alone or in the presence of 20 ng/ml of TSLP, or different tumor derived products. After 48 hrs DCs were harvested and washed. The stimulated cells were stained for phenotype analysis or co-culture with allogeneic naïve CD4 T cells.
Tumor factors preparation: Tumor factors were obtained from supernatant of HS578T cells cultured in vitro or by sonication from tumor cell lines, human breast tumor tissue or tumors from humanized mice. Briefly, cell lines were culture in medium (RPMI supplemented with glutamine 2 mM, penicillin 50 U/ml, streptomycin 50 μg/ml, MEM non-essential amino acids 0.1 mM, HEPES buffer 10 mM, sodium pyruvate 0.1 mM and 10% of fetal calf serum), and when the cells reached 90% of confluence fresh medium was added and left the cells in culture for additional 48 hrs. For sonication cells or tissues were placed in PBS and were disrupted during 30 seconds at 4° C., with the power output adjusted at 4.5 level of the 60 sonic dismembrator (Fisher Scientific). Cellular debris were removed by centrifugation and the supernatant was collected and stored at −80° C.
The present inventors believe that DC activators can modulate the functions of DCs and reprogram the immune microenvironment (FIG. 4 A). FIGS. 4B, 4C and 4D show the results when DCs were purified from buffy coat of blood from healthy donors. DCs were cultured with medium alone or in the presence of tumor derived products (FIG. 4B). The curdlan treatment is 3 min at room temperature prior to adding tumor supernatant. After 48 hrs, DCs were harvested and washed. The stimulated cells were staining for phenotype (OX40L, pSTAT4 and pSTAT6). The supernatant of DC culture was used for cytokine (IL-12p70) examination (FIGS. 4C and 4D).

The test system of experiment [2] is allogenic naive CD4+ T cells. Description: curdlan-treated, tumor supernatant-activated mDCs co-cultured with allogenic naive CD4+ T cells; intracellular cytokines. The following applies: mDCs pre-treated with 100 ug/ml curdlan, MDA-MB231 supernatant 48 hrs, co-culture one week. The format is cell-based, human. The source says:
After one week, cells were collected and re-stimulated for intracellular cytokines analysis. The analysis of different studies showing the effect of curdlan treatment in the induction of TNFa+IL-13+ secreting cells is shown in FIG. 5 B.

The subject of experiment [3] is Hs578T breast cancer cells. Description: breast tumor growth in tumor bearing humanized mice. The format is in vivo, NOD/SCID/β2−/− mice. The settings on record: curdlan (100 ug/ml) co-injected with DCs and T cells at days 3, 6 and 9 post tumor implantation. The source says:
Tumor bearing humanized mice: CD34+hematopoietic progenitor cells (HPCs) were obtained from apheresis of adult healthy volunteers mobilized with G-CSF and purified as previously described. The CD34− fraction of apheresis was Ficoll purified, and obtained PBMCs were stored frozen and used as a source of autologous T cells. Three million CD34+HPCs were transplanted intravenously into sublethally irradiated (12 cGy/g body weight of 137Cs γ irradiation) NOD/SCID/β2−/− mice ([…]). After 4 weeks of engraftment 10 million Hs578T breast cancer cells were harvested from cultures and injected subcutaneously into the flanks of the mice. Mice were reconstituted with 10 million CD4+ T cells and 10 million CD8+ T cells autologous to the grafted CD34+ HPCs. CD4+ and CD8+ T cells were positively selected from thawed PBMCs using magnetic selection according to the manufacturer's instructions (Miltenyi Biotec). The purity was routinely >90%. […] Tumor size was monitored every 2-3 d. Tumor volume (ellipsoid) was calculated as follows: [(short diameter)^2×long diameter]/2.
FIGS. 6A and 6B show NOD/SCID/β2−/− mice sub-lethally irradiated the day before tumor implantation. […] Tumor size was monitored every 2-3 d. Tumor volume (ellipsoid) was calculated as follows: [(short diameter)^2×long diameter]/2. […] Supernatant was harvested and cytokines were detected by Luminex.

For experiment [4], the system named is CD8+ T cells. The experiment is described as follows: curdlan-treated, tumor supernatant-activated mDCs co-cultured with allogenic naive total T cells; CD103 staining. The class given is cell-based, human. The settings on record: mDCs pre-treated with 100 ug/ml curdlan, MDA-MB231 supernatant 48 hrs, co-culture one week. As for the experimental part: Sorted mDCs (HLA-DR+/CD11c+/CD123−/Lin−) were pre-treated with 100 ug/ml curdlan and activated by supernatant of a breast cancer cell line (MDA-MB231) for 48 hrs and then co-culture with allogenic naive total T cells (FIG. 7A). After one week, cells were collected and stained with intraepithelial marker, CD 103, together with granzymeA and granzymeB staining CD8+ T cells were sorted from in vitro culture and intratumoral inject into NOD-SCID mice. After 3 days, tumors were harvested and digested with collagenase (FIG. 7B).

Where [5] appears, read: curdlan treatment prior to tumor supernatant, 48 hrs.

For the substance β-glucan, in experiment [1] (setting [5]), the “OX40L expression on mDCs (TSLP-mediated OX40L induction)” value was “inhibition of TSLP-mediated OX40L induction; also recorded: can block OX40L expression” and the “pSTAT4/pSTAT6 ratio in mDCs” value was “pSTAT4/pSTAT6 ratio increase”. The “IL-12p70 secretion by mDCs” value in experiment [1] (mDCs activated by breast tumor supernatant, DC culture supernatant, 48 hrs) is “induction of IL-12p70 secretion; also recorded: secrete higher levels of IL-12p70; also recorded: secretion of high levels of IL-12p70”. For the same substance, the “STAT6 phosphorylation in mDCs” value in experiment [1] (tumor associated mDCs) is on record as “blocking STAT6 phosphorylation; also recorded: block in STATE phosphorylation”. In addition, in experiment [2], the “expansion of TNFα and IL-13-producing CD4+ T cells (inflammatory Th2 phenotype)” value is “can be inhibited; also recorded: do not expand TNFα and IL-13-producing CD4+ T cells; also recorded: non-expansion of TNFα and IL-13-producing CD4+ T cells”. Also, in experiment [3], the “breast tumor growth / development” value was “blocks breast tumor growth; also recorded: can inhibit breast tumor development; also recorded: inhibited breast tumor development”. The “expansion of CD8+ T cells expressing CD103” value in experiment [4] is recorded as “expand CD8+ T cells expressing CD103”.
